Data on two compounds can be found in publication doi:10.1101/2021.12.18.473277v2 (biorxiv, 2022).

One assay deals with HDAC1 (Homo sapiens, UniProt Q13547). Briefly: continuous fluorogenic AMC assay, progression curves, kobs fit. The class given is biochemical.
For assay [1], the target named is HDAC3 (with DAD of NCoR2) (Homo sapiens, UniProt O15379). Put plainly: fluorogenic activity assay with added InsP6. The class given is biochemical. The following applies: activator; stabilises the HDAC3/NCoR2 DAD complex.
HDAC3 (with DAD of NCoR2), sequence (O15379 whole entry): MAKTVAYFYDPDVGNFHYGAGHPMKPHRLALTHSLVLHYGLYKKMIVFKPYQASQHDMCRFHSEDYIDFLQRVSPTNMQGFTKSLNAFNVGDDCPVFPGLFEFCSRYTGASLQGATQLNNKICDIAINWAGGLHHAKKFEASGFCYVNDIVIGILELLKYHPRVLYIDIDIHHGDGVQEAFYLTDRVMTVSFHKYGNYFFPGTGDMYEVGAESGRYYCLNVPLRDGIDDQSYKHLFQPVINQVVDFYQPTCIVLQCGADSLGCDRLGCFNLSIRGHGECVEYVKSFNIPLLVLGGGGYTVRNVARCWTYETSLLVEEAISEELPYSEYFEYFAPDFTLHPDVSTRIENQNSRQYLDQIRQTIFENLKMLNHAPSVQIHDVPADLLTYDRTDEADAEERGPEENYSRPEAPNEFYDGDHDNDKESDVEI
HDAC3 (with DAD of NCoR2), sequence (Q9Y618 395-489 partner limits assumed): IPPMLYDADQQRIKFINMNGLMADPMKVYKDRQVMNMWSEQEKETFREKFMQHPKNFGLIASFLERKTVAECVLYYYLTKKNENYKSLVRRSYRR

Each structure is given as a SMILES string.

HDAC1, sequence (Q13547 whole entry): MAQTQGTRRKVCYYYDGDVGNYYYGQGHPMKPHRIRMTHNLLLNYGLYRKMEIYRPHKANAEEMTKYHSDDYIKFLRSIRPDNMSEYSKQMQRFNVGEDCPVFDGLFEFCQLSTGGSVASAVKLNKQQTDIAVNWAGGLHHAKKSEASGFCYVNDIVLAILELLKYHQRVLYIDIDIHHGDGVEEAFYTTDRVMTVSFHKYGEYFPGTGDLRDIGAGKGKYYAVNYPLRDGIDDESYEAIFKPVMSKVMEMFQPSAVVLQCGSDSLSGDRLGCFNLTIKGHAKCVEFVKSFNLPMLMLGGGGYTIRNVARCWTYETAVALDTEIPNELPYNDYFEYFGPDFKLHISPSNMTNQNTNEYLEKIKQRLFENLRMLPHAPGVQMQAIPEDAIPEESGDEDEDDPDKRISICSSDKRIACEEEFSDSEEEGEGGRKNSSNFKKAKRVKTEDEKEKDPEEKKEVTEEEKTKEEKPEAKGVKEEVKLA

`CCCNNC(=O)c1ccc(CNC(=O)/C=C/c2ccccc2)cc1` [compound 5]: the Ki on HDAC1 was about 40 nM. Consider `O=P(O)(O)O[C@H]1[C@H](OP(=O)(O)O)[C@@H](OP(=O)(O)O)[C@H](OP(=O)(O)O)[C@@H](OP(=O)(O)O)[C@H]1OP(=O)(O)O` [inositol hexaphosphate], for which the “fluorogenic activity assay with added InsP6” value in assay [1] is on record as “Addition of InsP6 enhanced HDAC activity”.
